Among the data in PubChem BioAssay AID198 (DTP/NCI, 2004) are T/C values, retold here.

The subject of the assay is B16 melanoma ip, C57BL/6 mice, median survival T/C. The experiment in a line: NCI In Vivo Anticancer Drug Screen. Data for tumor model B16 Melanoma (intraperitoneal) in C57BL/6 mice. Conditions: endpoint: median survival time, higher = longer survival. As to the method:
The antitumor activity of compounds was measured in mice bearing transplantable tumors. Survival or tumor size were measured and the results are expressed as the measurement made in the treated group (T) divided by the measurement made in the vehicle treated control group (C). The tumor model used in this assay is B16 Melanoma (intraperitoneal) in C57BL/6 mice

Setting [1] is: dose: 50.0 mg/kg/injection, schedule: Q01DX009 (ip), vehicle: saline.
Where [2] appears, read: dose: 100.0 mg/kg/injection, schedule: Q01DX009 (ip), vehicle: saline.
Where [3] appears, read: dose: 200.0 mg/kg/injection, schedule: Q01DX009 (ip), vehicle: saline.
Setting [4] is: dose: 25.0 mg/kg/injection, schedule: Q01DX009 (ip), vehicle: saline.

Each structure is given as a SMILES string. “And” between values parts separate entries of the source, which are not always exact repeats. Identical values can stand only once. Toxic doses and inconclusive results are not listed. *1 amine or outer side, *2 acyl side, *3 side chain or, on linkers, in order; H or OH if unused. Where a SMILES comes first, the peptide text is derived from it. Bridges are numbered along the chain shown (N, C = ends). Roman numbers before positions name the chains, in order. [ ]: non-standard residue; d: D form. Actinocin(9to1) = Cc1c2oc3c(C)ccc(C(=O)[*:1])c3nc-2c(C(=O)[*:2])c(N)c1=O; aThr = C[C@H](O)[C@H](N)C(=O)O; NMeV = CN[C@H](C(=O)O)C(C)C; Sar = CNCC(=O)O

For the compound `OC1CCCC2CCC[N-]C12.OC1CCCC2CCC[N-]C12.[O]=[V][OH]` (stereo not drawn), the T/C was 107 % of control (dose: 6.25 mg/kg/injection, schedule: Q01DX009 (ip), vehicle: saline with Tween-80); 107 % of control (dose: 12.5 mg/kg/injection, schedule: Q01DX009 (ip), vehicle: saline with Tween-80); 107 % of control (dose: 25.0 mg/kg/injection, schedule: Q01DX009 (ip), vehicle: saline with Tween-80).

Regarding `S=c1nc[nH]c2nc[nH]c12`, the T/C runs as follows: (dose: 7.5 mg/kg/injection, schedule: Q01DX009 (ip), vehicle: saline) 93 % of control and 100 % of control; (dose: 15.0 mg/kg/injection, schedule: Q01DX009 (ip), vehicle: saline) 90 % of control and 93 % of control; (dose: 30.0 mg/kg/injection, schedule: Q01DX009 (ip), vehicle: saline) 93 % of control; (dose: 60.0 mg/kg/injection, schedule: Q01DX009 (ip), vehicle: saline) 93 % of control.

Regarding `C1CN1c1nc(N2CC2)nc(N2CC2)n1`, the T/C was 103 % of control and 116 % of control and 120 % of control (dose: 0.13 mg/kg/injection, schedule: Q01DX009 (ip), vehicle: saline); 109 % of control and 120 % of control and 122 % of control (dose: 0.25 mg/kg/injection, schedule: Q01DX009 (ip), vehicle: saline); 86 % of control (dose: 0.5 mg/kg/injection, schedule: Q01DX009 (ip), vehicle: saline); 100 % of control (dose: 1.0 mg/kg/injection, schedule: Q01DX009 (ip), vehicle: saline).

On to `CO[C@H]1/C=C/O[C@@]2(C)Oc3c(C)c(O)c4c(O)c(c(/C=N/N5CCN(C)CC5)c(O)c4c3C2=O)NC(=O)/C(C)=C\C=C\[C@H](C)[C@H](O)[C@@H](C)[C@@H](O)[C@@H](C)[C@H](OC(C)=O)[C@@H]1C`, for which the T/C is 106 % of control under setting [1], 109 % of control under setting [2] and 112 % of control under setting [3].

Regarding `CN(C)CCCN1c2ccc(O)cc2Sc2ccc(Cl)cc21`, the T/C is, setting by setting: (dose: 6.25 mg/kg/injection, schedule: Q01DX009 (ip), vehicle: saline) 109 % of control; (dose: 12.5 mg/kg/injection, schedule: Q01DX009 (ip), vehicle: saline) 115 % of control; under setting [4], 103 % of control; under setting [1], 103 % of control and 106 % of control; under setting [2], 100 % of control.

In the case of `CC1OC(O[C@@H]2C=C3CC[C@@H]4[C@H](CC[C@]5(C)[C@@H](c6ccc(=O)oc6)CC[C@]45O)[C@@]3(C)CC2)C(O)C(O)C1O` (stereo partly drawn), the T/C by setting is: (dose: 2.5 mg/kg/injection, schedule: Q01DX009 (sc), vehicle: steriod suspending solution) 113 % of control; (dose: 5.0 mg/kg/injection, schedule: Q01DX009 (sc), vehicle: steriod suspending solution) 97 % of control.

For `CCSCCC(N)C(=O)O` (stereo not drawn), the T/C under setting [1] is 100 % of control, the T/C under setting [2] is 100 % of control and the T/C under setting [3] is 90 % of control.

On to `O=C(Nc1ccc(C2=NCCN2)cc1)c1ccc(C(=O)Nc2ccc(C3=NCCN3)cc2)cc1`, for which the T/C is 100 % of control (dose: 8.0 mg/kg/injection, schedule: Q01DX009 (ip), vehicle: saline); 92 % of control and 109 % of control (dose: 16.0 mg/kg/injection, schedule: Q01DX009 (ip), vehicle: saline); 92 % of control and 106 % of control (dose: 32.0 mg/kg/injection, schedule: Q01DX009 (ip), vehicle: saline); 96 % of control and 106 % of control (dose: 64.0 mg/kg/injection, schedule: Q01DX009 (ip), vehicle: saline).

On to `CN1CCN(CCCN2c3ccccc3Sc3ccc(C(F)(F)F)cc32)CC1`, for which, under setting [4], the T/C was 107 % of control.

In the case of `COc1cc(NS(C)(=O)=O)ccc1Nc1c2ccccc2nc2ccccc12`, the T/C by setting is: (dose: 0.5 mg/kg/injection, schedule: Q01DX009 (ip), vehicle: water) 160 % of control; (dose: 1.0 mg/kg/injection, schedule: Q01DX009 (ip), vehicle: Klucel (hydroxypropylcellulose) (HPC)) 172 % of control; (dose: 2.0 mg/kg/injection, schedule: Q01DX009 (ip), vehicle: Klucel (hydroxypropylcellulose) (HPC)) 179 % of control; (dose: 2.0 mg/kg/injection, schedule: Q01DX009 (ip), vehicle: water) 222 % of control; (dose: 4.0 mg/kg/injection, schedule: Q01DX009 (ip), vehicle: water) 246 % of control.

Take `Cc1c2oc3c(C)ccc(C(=O)N[C@@H]4C(=O)N[C@H](C(C)C)C(=O)N5CCC[C@H]5C(=O)N(C)CC(=O)N(C)[C@@H](C(C)C)C(=O)O[C@H]4C)c3nc-2c(C(=O)N[C@@H]2C(=O)N[C@H](C(C)C)C(=O)N3CCC[C@H]3C(=O)N(C)CC(=O)N(C)[C@@H](C(C)C)C(=O)O[C@H]2C)c(N)c1=O` (I: [aThr][dV]P[Sar][NMeV] / II: [aThr][dV]P[Sar][NMeV]; ester I:1-I:C, II:1-II:C; linker I:N-II:N via Actinocin(9to1)): the T/C reads like this: (dose: 0.03 mg/kg/injection, schedule: Q01DX009 (ip), vehicle: saline) 150 % of control and 165 % of control; (dose: 0.05 mg/kg/injection, schedule: Q01DX009 (ip), vehicle: saline) 156 % of control and 164 % of control and 193 % of control; (dose: 0.1 mg/kg/injection, schedule: Q01DX009 (ip), vehicle: saline) 203 % of control; (dose: 0.2 mg/kg/injection, schedule: Q01DX009 (ip), vehicle: saline) 117 % of control.
